Laboratory results taken from article PMC3965624 (Life sciences, 2014).

Target: NTSR1 (Homo sapiens, UniProt P30989)
Experiment: […]-Tyr3-NTS radioligand displacement on intact NCI-H1299 cells
Type: cell-based

Sequence of NTSR1 (P30989 whole entry): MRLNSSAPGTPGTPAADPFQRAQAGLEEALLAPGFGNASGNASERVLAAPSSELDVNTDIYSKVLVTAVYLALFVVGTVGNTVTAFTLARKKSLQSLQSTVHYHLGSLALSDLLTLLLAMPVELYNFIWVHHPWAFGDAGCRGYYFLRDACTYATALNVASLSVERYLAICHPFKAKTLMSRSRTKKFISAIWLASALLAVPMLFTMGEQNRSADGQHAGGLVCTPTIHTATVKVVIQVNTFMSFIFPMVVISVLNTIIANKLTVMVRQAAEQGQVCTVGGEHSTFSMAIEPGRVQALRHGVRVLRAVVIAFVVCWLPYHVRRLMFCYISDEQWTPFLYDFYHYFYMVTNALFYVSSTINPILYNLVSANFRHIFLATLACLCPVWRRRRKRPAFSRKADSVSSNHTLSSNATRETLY

Question: With COc1cccc(OC)c1-c1cc(C(=O)NC2(C(=O)O)C3CC4CC(C3)CC2C4)nn1-c1ccnc2cc(Cl)ccc12 (stereo not shown) [SR48692] as the compound, how does the IC50 read?
Answer: 205 nM
